The values below come from patent US8822517B2, “Arylosulfonamides for the treatment of CNS diseases” (Adamed SP. Z O.O., priority 2010, dated 2014).

In experiment [1] the target is T1, serotonine transporter (SERT) receptor (Homo sapiens, UniProt P31645).
T1 construct: expressed in transfected cells; host or cells: CHO cells
As to the kind of experiment: Binding assay SERT (h), [3H]imipramine, CHO cells. As to conditions: read-out: SERT [%]. The essentials: (§1)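 Test conc. 1×10^−6 M. Read-out by scintillation counting. Specific = total − nonspecific (excess cold ligand).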

For the next experiment, the system named is sigma σ receptor. As to the kind of experiment: Binding assay σ (non-selective), [3H]DTG, rat cerebral cortex. As to conditions: percent inhibition of control specific binding; compounds tested at 1×10^−6 M. As for the experimental part:
(§2) The specific ligand binding to the receptors is defined as the difference between the total binding and the nonspecific binding determined in the presence of an excess of so unlabelled ligand.
(§3) The specific Ligand binding to the receptor is defined as the difference between total and non-specific binding determined in the presence of an excess of unlabelled ligand. The compounds were tested at a concentration of 1×10^−6 M, and scintillation counting was the method of detection of ligand binding.

Another experiment relates to adrenergic α1 receptor. As to the kind of experiment: Binding assay α1 (non-selective), [3H]prazosin, rat cerebral cortex. Conditions: percent inhibition of control specific binding; compounds tested at 1×10^−6 M. The essentials:
as §1

The target in the next experiment is T2, muscarinic M3 receptor (Homo sapiens, UniProt P20309).
T2 construct: expressed in transfected cells; host or cells: CHO cells
As to the kind of experiment: Binding assay M3 (h), [3H]4-DAMP, CHO cells. Conditions: read-out: M3 [%]. As for the experimental part: as §2, §3

Experiment [2] deals with T3, serotoninergic receptor 5-HT2C (Homo sapiens, UniProt P28335).
T3 construct: expressed in transfected cells; host or cells: HEK-293 cells
T3 sequence (P28335 33-458): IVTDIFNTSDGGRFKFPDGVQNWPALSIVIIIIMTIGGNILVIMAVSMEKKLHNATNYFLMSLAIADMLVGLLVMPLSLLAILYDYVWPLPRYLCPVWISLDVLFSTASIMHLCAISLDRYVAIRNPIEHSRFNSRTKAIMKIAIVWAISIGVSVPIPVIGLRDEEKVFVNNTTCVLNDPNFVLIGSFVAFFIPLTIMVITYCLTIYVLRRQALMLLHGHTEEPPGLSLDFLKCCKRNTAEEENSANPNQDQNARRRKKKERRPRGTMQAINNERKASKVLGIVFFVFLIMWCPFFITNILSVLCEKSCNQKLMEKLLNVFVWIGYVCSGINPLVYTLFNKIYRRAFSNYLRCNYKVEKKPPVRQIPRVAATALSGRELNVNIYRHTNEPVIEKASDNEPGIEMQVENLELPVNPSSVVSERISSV
As to the kind of experiment: Binding assay 5-HT2C (h), [3H]mesulergine, HEK-293 cells. As to conditions: read-out: 5-HT2C [%]. The protocol:
as §2, §3

In a further experiment the target is dopaminergic D3 receptor (Homo sapiens, UniProt P35462). As to the kind of experiment: Binding assay D3 (h), [3H]methyl-spiperone, CHO cells. Also noted: expressed in transfected cells; host or cells: CHO cells. Conditions: read-out: D3 [%]. In short, it runs like this: as §1
Experiment [3] has as its target serotoninergic 5-HT6 receptor (Homo sapiens, UniProt P50406). As to the kind of experiment: Binding assay 5-HT6 (h), [3H]LSD, CHO cells. Also noted: expressed in transfected cells; host or cells: CHO cells. Conditions: read-out: 5-HT6. The essentials: as §1
For experiment [4], the target named is serotoninergic 5-HT7 receptor (Homo sapiens, UniProt P34969). The experiment in a line: Binding assay 5-HT7 (h), [3H]LSD, CHO cells. Further details: expressed in transfected cells; host or cells: CHO cells. Conditions: read-out: 5-HT7. The essentials:
as §1

A further experiment deals with T4, adrenergic α2C receptor (Homo sapiens, UniProt P18825).
T4 sequence (P18825 1-462): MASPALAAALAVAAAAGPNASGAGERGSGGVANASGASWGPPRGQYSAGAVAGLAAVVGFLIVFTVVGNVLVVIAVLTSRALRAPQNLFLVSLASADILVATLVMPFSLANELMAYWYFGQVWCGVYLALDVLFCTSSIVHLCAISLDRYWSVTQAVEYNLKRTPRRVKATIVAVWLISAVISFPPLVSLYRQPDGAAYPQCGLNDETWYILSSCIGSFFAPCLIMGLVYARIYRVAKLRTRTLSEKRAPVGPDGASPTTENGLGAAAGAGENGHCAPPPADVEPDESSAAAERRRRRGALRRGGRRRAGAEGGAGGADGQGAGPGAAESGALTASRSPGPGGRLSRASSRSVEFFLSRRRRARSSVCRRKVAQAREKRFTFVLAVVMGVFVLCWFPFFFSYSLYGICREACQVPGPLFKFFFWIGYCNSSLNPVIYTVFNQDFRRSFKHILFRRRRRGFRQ
As to the kind of experiment: Binding assay α2C (h), [3H]RX 821002, CHO cells. Further details: expressed in transfected cells; host or cells: CHO cells. As to conditions: read-out: α2C [%]. As for the experimental part: as §2, §3

The target of another experiment is dopaminergic D2 receptor (Homo sapiens, UniProt P14416). As to the kind of experiment: Binding assay D2S (h), [3H]methyl-spiperone, HEK-293 cells. As to conditions: read-out: D2 [%]. Further details: expressed in transfected cells; host or cells: HEK-293 cells. In short, it runs like this: as §1
Experiment [5] has as its target T5, serotoninergic 5-HT1A receptor (Homo sapiens, UniProt P08908).
T5 sequence (P08908 1-422): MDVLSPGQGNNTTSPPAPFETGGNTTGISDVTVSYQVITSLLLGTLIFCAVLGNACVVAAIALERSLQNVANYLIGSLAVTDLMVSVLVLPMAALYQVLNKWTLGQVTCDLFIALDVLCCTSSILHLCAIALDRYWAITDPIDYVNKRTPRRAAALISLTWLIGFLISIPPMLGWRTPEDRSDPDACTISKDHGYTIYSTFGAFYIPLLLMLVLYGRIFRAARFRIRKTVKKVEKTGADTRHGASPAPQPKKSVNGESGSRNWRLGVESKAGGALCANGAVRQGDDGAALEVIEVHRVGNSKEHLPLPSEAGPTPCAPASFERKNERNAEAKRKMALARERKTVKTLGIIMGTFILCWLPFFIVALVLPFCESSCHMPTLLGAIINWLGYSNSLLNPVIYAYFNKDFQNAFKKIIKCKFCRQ
The experiment in a line: Binding assay 5-HT1A (h), [3H]8-OH-DPAT, HEK-293 cells. Further details: expressed in transfected cells; host or cells: HEK-293 cells. Conditions: read-out: 5-HT1A. In short, it runs like this:
as §1

In experiment [6] the target is serotoninergic 5-HT2A receptor (Homo sapiens, UniProt P28223). As to the kind of experiment: Binding assay 5-HT2A (h), [3H]ketanserin, HEK-293 cells. Also noted: expressed in transfected cells; host or cells: HEK-293 cells. As to conditions: read-out: 5-HT2A. The essentials: as §1
The target of experiment [7] is histaminergic H1 receptor (Homo sapiens, UniProt P35367). As to the kind of experiment: Binding assay H1 (h), [3H]pyrilamine, HEK-293 cells. Further details: expressed in transfected cells; host or cells: HEK-293 cells. Conditions: read-out: H1 [%]. The protocol: as §2, §3
Chain of histaminergic H1 receptor (P35367 whole entry): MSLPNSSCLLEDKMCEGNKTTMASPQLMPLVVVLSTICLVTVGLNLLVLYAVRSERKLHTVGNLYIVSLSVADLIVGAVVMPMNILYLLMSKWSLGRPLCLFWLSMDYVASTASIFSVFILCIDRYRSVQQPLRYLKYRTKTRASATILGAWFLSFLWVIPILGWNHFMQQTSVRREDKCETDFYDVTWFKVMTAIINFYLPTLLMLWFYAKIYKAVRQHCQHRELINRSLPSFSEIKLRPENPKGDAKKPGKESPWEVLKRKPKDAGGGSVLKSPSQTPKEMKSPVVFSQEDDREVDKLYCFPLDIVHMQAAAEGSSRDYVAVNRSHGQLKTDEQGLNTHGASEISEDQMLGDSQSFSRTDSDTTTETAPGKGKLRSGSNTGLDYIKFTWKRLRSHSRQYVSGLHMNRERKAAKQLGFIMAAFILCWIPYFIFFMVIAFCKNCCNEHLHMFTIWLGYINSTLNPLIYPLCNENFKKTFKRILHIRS

T1 sequence (P31645 whole entry): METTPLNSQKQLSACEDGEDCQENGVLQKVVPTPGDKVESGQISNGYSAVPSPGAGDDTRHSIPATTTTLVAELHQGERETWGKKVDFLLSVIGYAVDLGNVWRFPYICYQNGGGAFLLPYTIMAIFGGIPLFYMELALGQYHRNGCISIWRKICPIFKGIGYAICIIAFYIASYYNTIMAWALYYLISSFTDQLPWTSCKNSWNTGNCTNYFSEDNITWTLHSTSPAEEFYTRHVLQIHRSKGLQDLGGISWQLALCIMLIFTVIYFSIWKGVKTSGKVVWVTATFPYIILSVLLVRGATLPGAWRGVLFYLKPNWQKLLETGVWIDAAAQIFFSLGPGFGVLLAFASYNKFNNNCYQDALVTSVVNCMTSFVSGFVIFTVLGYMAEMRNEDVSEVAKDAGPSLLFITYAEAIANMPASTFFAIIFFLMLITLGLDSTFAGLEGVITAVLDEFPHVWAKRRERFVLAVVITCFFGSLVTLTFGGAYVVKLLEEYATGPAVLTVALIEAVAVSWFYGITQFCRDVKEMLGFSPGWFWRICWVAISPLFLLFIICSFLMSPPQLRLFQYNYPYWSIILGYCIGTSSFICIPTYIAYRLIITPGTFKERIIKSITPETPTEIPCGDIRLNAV
Chain of dopaminergic D3 receptor (P35462 whole entry): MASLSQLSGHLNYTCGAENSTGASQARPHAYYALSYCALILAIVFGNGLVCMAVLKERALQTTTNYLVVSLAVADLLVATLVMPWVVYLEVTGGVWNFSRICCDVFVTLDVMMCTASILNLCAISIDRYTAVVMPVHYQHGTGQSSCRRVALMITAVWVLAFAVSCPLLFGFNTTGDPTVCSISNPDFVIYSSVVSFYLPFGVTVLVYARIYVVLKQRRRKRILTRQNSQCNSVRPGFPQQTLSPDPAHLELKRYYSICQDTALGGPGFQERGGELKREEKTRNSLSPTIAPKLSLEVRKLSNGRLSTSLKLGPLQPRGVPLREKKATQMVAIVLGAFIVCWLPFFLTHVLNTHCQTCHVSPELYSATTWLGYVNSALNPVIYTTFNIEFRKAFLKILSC
T2 sequence (P20309 whole entry): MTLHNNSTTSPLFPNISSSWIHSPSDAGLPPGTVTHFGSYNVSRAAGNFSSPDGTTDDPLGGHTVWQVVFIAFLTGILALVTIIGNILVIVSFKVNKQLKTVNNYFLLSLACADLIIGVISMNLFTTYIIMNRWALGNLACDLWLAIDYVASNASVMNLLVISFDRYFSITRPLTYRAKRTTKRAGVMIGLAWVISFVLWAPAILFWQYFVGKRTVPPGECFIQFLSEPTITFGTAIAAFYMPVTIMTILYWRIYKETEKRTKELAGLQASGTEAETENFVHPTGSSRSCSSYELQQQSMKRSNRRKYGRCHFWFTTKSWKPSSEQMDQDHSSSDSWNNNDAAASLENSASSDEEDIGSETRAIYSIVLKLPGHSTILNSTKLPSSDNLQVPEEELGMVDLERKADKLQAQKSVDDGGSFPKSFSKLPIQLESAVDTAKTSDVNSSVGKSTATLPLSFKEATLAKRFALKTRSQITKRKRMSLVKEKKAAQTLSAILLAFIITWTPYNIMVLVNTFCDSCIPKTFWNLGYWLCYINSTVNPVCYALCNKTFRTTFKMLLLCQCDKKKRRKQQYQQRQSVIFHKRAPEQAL
Chain of dopaminergic D2 receptor (P14416 1-414 isoform P14416-2): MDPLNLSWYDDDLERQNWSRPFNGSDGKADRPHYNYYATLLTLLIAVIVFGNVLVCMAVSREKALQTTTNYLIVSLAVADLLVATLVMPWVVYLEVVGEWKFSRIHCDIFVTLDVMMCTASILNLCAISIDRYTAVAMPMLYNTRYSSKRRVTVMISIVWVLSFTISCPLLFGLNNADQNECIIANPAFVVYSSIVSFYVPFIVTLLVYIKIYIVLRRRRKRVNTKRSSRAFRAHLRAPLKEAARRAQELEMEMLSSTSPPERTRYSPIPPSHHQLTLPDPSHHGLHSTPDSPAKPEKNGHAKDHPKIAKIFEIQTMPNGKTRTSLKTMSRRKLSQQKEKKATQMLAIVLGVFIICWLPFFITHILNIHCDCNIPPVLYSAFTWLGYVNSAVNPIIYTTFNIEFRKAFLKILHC
Chain of serotoninergic 5-HT2A receptor (P28223 whole entry): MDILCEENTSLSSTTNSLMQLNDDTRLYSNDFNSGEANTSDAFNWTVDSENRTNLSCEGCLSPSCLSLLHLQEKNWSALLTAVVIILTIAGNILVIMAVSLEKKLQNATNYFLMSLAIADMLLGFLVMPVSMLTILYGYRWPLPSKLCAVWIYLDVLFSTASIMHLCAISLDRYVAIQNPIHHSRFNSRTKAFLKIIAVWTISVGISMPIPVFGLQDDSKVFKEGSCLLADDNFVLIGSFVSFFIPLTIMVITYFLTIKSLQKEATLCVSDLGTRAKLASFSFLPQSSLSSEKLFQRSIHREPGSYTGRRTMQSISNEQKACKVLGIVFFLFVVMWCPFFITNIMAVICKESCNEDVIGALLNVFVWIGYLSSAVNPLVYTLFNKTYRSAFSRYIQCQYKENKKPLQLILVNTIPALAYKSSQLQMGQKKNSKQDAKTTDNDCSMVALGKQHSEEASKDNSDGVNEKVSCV
Chain of serotoninergic 5-HT7 receptor (P34969 whole entry): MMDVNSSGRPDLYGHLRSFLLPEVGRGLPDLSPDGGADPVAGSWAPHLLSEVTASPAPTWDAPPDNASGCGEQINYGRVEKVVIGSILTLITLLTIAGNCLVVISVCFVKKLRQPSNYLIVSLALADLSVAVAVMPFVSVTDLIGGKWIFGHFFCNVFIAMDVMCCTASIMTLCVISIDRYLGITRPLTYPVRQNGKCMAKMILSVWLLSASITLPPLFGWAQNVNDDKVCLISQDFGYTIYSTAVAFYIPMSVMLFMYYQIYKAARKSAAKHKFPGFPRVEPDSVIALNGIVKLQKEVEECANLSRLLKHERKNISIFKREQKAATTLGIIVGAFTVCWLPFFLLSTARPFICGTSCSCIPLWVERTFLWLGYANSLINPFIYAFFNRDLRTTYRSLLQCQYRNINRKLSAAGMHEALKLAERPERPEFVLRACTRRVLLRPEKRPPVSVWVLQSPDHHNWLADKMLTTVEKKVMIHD
Chain of serotoninergic 5-HT6 receptor (P50406 whole entry): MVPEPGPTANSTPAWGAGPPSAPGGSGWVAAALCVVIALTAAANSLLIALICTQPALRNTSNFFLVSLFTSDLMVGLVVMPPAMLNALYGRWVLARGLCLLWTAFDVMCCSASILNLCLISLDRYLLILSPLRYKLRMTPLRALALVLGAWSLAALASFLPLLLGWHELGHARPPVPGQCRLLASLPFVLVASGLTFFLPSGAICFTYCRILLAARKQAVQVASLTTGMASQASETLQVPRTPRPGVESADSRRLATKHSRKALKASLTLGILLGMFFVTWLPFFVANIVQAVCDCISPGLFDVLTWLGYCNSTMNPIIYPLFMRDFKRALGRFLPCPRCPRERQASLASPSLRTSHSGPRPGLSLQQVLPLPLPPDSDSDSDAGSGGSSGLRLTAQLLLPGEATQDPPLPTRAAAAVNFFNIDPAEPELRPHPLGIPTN

As to `Cc1[nH]c2ccc(Cl)cc2c1C1=CCN(CCCCNS(=O)(=O)c2ccc(Cl)cc2)CC1` [Compound 58, 4-Chloro-N-{4-[4-(5-chloro-2-methyl-1H-indol-3-yl)-3,6-dihydropyridin-1(2H)-yl]butyl}benzenesulphonamide], the inhibition at 1 µM in [1] is 78%; on muscarinic M3 receptor it was 11%; in experiment [2], 21%; on dopaminergic D3 receptor, 100%; in experiment [3] it was 84%; in experiment [4], 46%. Moreover, the inhibition at 1 µM is 80% at adrenergic α2C receptor; 97% on dopaminergic D2 receptor; 94% in experiment [5]; 51% in experiment [6]; 75% in experiment [7]. Moreover, the “σ [%]” value in the experiment with sigma σ receptor was 34%. Further, the “α1 [%]” value with adrenergic α1 receptor is 76%.

Regarding `O=S(=O)(NCCCCN1CCN(c2nsc3ccccc23)CC1)c1ccc(F)c(Cl)c1` [Compound 63, N-[4-[4-(1,2-Benzothiazol-3-yl)piperazin-1-yl]butyl]-3-chloro-4-fluorobenzenesulphonamide], the inhibition at 1 µM in experiment [1] turned out to be 53%; at muscarinic M3 receptor, 11%; in experiment [2], 95%; on dopaminergic D3 receptor it was 103%; in experiment [3] it was 89%; in [4], 99%. Besides, the inhibition at 1 µM at adrenergic α2C receptor amounted to 98%; on dopaminergic D2 receptor, 99%; in experiment [5], 97%; in experiment [6] it was 100%; in experiment [7] it was 99%. The “σ [%]” value in the experiment on sigma σ receptor is reported as 54%. The “α1 [%]” value with adrenergic α1 receptor is recorded as 99%.

In the case of `Cc1c(S(=O)(=O)NCCCN2CCN(c3nsc4ccccc34)CC2)sc2ccc(F)cc12` [Compound 66, N-[3-[4-(1,2-Benzothiazol-3-yl)piperazin-1-yl]propyl]-5-fluoro-3-methylbenzothiophene-2-sulphonamide], the inhibition at 1 µM is 93% in [1]; 10% on muscarinic M3 receptor; 86% in experiment [2]; 101% at dopaminergic D3 receptor; 95% in experiment [3]; 101% in experiment [4]. Further, the inhibition at 1 µM at adrenergic α2C receptor was 103%; at dopaminergic D2 receptor it was 101%; in experiment [5], 98%; in experiment [6], 101%; in experiment [7], 99%. In the experiment on sigma σ receptor, the “σ [%]” value was 61%. Further, in the experiment with adrenergic α1 receptor, the “α1 [%]” value turned out to be 93%.

Turning to `O=S(=O)(NCCCN1CCN(c2nsc3ccccc23)CC1)c1cccc(Cl)c1` [Compound 70, N-[3-[4-(1,2-Benzothiazol-3-yl)piperazin-1-yl]propyl]-3-chlorobenzenesulphonamide], the inhibition at 1 µM in experiment [1] stood at 82%; at muscarinic M3 receptor it was 25%; in experiment [2], 88%; at dopaminergic D3 receptor it was 101%; in [3], 99%; in experiment [4] it was 100%. Further, the inhibition at 1 µM on adrenergic α2C receptor turned out to be 100%; on dopaminergic D2 receptor, 99%; in [5], 99%; in [6], 101%; in experiment [7] it was 97%. Also, the “σ [%]” value with sigma σ receptor is on record as 64%. Also, the “α1 [%]” value in the experiment on adrenergic α1 receptor is 96%.

For `N#Cc1cccc(S(=O)(=O)NCCCN2CCN(c3nsc4ccccc34)CC2)c1` [Compound 74, N-[3-[4-(1,2-Benzothiazol-3-yl)piperazin-1-yl]propyl]-3-cyanobenzenesulphonamide], the inhibition at 1 µM in experiment [1] is 79%; at muscarinic M3 receptor, 17%; in experiment [2] it was 78%; on dopaminergic D3 receptor, 92%; in [3] it was 95%; in experiment [4] it was 97%. Besides, the inhibition at 1 µM on adrenergic α2C receptor was found to be 92%; on dopaminergic D2 receptor it was 93%; in experiment [5], 99%; in experiment [6], 102%; in experiment [7], 90%. The “σ [%]” value in the experiment on sigma σ receptor came to 34%. Further, the “α1 [%]” value with adrenergic α1 receptor worked out at 94%.

`O=c1[nH]c2cccc(N3CCN(CCCNS(=O)(=O)c4cccc(Cl)c4)CC3)c2[nH]1` [Compound 174, 3-Chloro-N-[3-[4-(2-oxo-1,3-dihydrobenzimidazol-4-yl)piperazin-1-yl]propyl]benzenesulphonamide]: the inhibition at 1 µM was determined as 11% in experiment [1]; 15% at muscarinic M3 receptor; 0% in [2]; 96% on dopaminergic D3 receptor; 4% in experiment [3]; 92% in [4]. Moreover, the inhibition at 1 µM on adrenergic α2C receptor is 55%; on dopaminergic D2 receptor, 91%; in experiment [5], 98%; in experiment [6] it was -24%; in experiment [7], 25%. Further, the “σ [%]” value in the experiment with sigma σ receptor was −16%. Moreover, in the experiment on adrenergic α1 receptor, the “α1 [%]” value stood at 86%.

`O=S(=O)(NCCCN1CCN(c2nsc3ccccc23)CC1)c1ccc(Cl)c(Cl)c1` [Compound 251, N-[3-[4-(1,2-Benzothiazol-3-yl)piperazin-1-yl]propyl]-3,4-dichlorobenzenesulphonamide]: the inhibition at 1 µM came out at 87% in [1]; 8% at muscarinic M3 receptor; 83% in experiment [2]; 97% on dopaminergic D3 receptor; 99% in experiment [3]; 99% in experiment [4]. For the same molecule, the inhibition at 1 µM at adrenergic α2C receptor worked out at 96%; at dopaminergic D2 receptor, 97%; in [5], 99%; in [6], 101%. Besides, the “σ [%]” value in the experiment with sigma σ receptor was 61%. The “α1 [%]” value in the experiment on adrenergic α1 receptor worked out at 95%.
